Test results from ChEMBL document CHEMBL3046781, “Resistance of Helicoverpa assulta (Guenée) (Lepidoptera: Noctuidae) to fenvalerate, phoxim and methomyl in China” (2009).

Assays:
Type in all cases: functional
Helicoverpa assulta [1] = assay: Insecticidal activity against sixth-instar larvae of Helicoverpa assulta FJ2 at 1.8 to 183360 mg/l after 48 hr by chi-squared analysis
Helicoverpa assulta [2] = assay: Resistance factor, ratio of LD50 for sixth-instar larvae of Helicoverpa assulta AH1 to LD50 for sixth-instar larvae of Helicoverpa assulta at 1.8 to 183360 mg/l
Helicoverpa assulta [3] = assay: Insecticidal activity against sixth-instar larvae of Helicoverpa assulta FJ3 at 1.8 to 183360 mg/l after 48 hr by chi-squared analysis
Helicoverpa assulta [4] = assay: Insecticidal activity against sixth-instar larvae of Helicoverpa assulta SD2 at 1.8 to 183360 mg/l after 48 hr by chi-squared analysis
Helicoverpa assulta [5] = assay: Resistance factor, ratio of LD50 for sixth-instar larvae of Helicoverpa assulta AH3 to LD50 for sixth-instar larvae of Helicoverpa assulta at 1.8 to 183360 mg/l
Helicoverpa assulta [6] = assay: Insecticidal activity against sixth-instar larvae of Helicoverpa assulta HB1 at 1.8 to 183360 mg/l after 48 hr by chi-squared analysis
Helicoverpa assulta [7] = assay: Resistance factor, ratio of LD50 for sixth-instar larvae of Helicoverpa assulta AH2 to LD50 for sixth-instar larvae of Helicoverpa assulta at 1.8 to 183360 mg/l
Helicoverpa assulta [8] = assay: Insecticidal activity against sixth-instar larvae of Helicoverpa assulta FJ1 at 1.8 to 183360 mg/l after 48 hr by chi-squared analysis
Helicoverpa assulta [9] = assay: Insecticidal activity against sixth-instar larvae of Helicoverpa assulta AH1 at 1.8 to 183360 mg/l after 48 hr by chi-squared analysis
Helicoverpa assulta [10] = assay: Insecticidal activity against sixth-instar larvae of Helicoverpa assulta YN3 at 1.8 to 183360 mg/l after 48 hr by chi-squared analysis
Helicoverpa assulta [11] = assay: Resistance factor, ratio of LD50 for sixth-instar larvae of Helicoverpa assulta YN7 to LD50 for sixth-instar larvae of Helicoverpa assulta at 1.8 to 183360 mg/l
Helicoverpa assulta [12] = assay: Resistance factor, ratio of LD50 for sixth-instar larvae of Helicoverpa assulta YN6 to LD50 for sixth-instar larvae of Helicoverpa assulta at 21 to 3390 mg/l
Helicoverpa assulta [13] = assay: Insecticidal activity against sixth-instar larvae of Helicoverpa assulta HB2 at 21 to 3390 mg/l after 48 hr by chi-squared analysis
Helicoverpa assulta [14] = assay: Resistance factor, ratio of LD50 for sixth-instar larvae of Helicoverpa assulta AH3 to LD50 for sixth-instar larvae of Helicoverpa assulta at 21 to 3390 mg/l
Helicoverpa assulta [15] = assay: Resistance factor, ratio of LD50 for sixth-instar larvae of Helicoverpa assulta HB2 to LD50 for sixth-instar larvae of Helicoverpa assulta at 21 to 3390 mg/l
Helicoverpa assulta [16] = assay: Insecticidal activity against sixth-instar larvae of Helicoverpa assulta GZ4 at 21 to 3390 mg/l after 48 hr by chi-squared analysis
Helicoverpa assulta [17] = assay: Insecticidal activity against sixth-instar larvae of Helicoverpa assulta HN2 at 21 to 3390 mg/l after 48 hr by chi-squared analysis
Helicoverpa assulta [18] = assay: Resistance factor, ratio of LD50 for sixth-instar larvae of Helicoverpa assulta SD1 to LD50 for sixth-instar larvae of Helicoverpa assulta at 21 to 3390 mg/l
Helicoverpa assulta [19] = assay: Resistance factor, ratio of LD50 for sixth-instar larvae of Helicoverpa assulta YN7 to LD50 for sixth-instar larvae of Helicoverpa assulta at 21 to 3390 mg/l
Helicoverpa assulta [20] = assay: Resistance factor, ratio of LD50 for sixth-instar larvae of Helicoverpa assulta GZ5 to LD50 for sixth-instar larvae of Helicoverpa assulta at 21 to 3390 mg/l
Helicoverpa assulta [21] = assay: Resistance factor, ratio of LD50 for sixth-instar larvae of Helicoverpa assulta GZ2 to LD50 for sixth-instar larvae of Helicoverpa assulta at 21 to 3390 mg/l
Helicoverpa assulta [22] = assay: Resistance factor, ratio of LD50 for sixth-instar larvae of Helicoverpa assulta GZ3 to LD50 for sixth-instar larvae of Helicoverpa assulta at 21 to 3390 mg/l
Helicoverpa assulta [23] = assay: Insecticidal activity against sixth-instar larvae of Helicoverpa assulta AH1 at 21 to 3390 mg/l after 48 hr by chi-squared analysis
Helicoverpa assulta [24] = assay: Resistance factor, ratio of LD50 for sixth-instar larvae of Helicoverpa assulta HN1 to LD50 for sixth-instar larvae of Helicoverpa assulta at 21 to 3390 mg/l
Helicoverpa assulta [25] = assay: Insecticidal activity against sixth-instar larvae of Helicoverpa assulta FJ3 at 21 to 3390 mg/l after 48 hr by chi-squared analysis
Helicoverpa assulta [26] = assay: Resistance factor, ratio of LD50 for sixth-instar larvae of Helicoverpa assulta GZ1 to LD50 for sixth-instar larvae of Helicoverpa assulta at 39 to 12630 mg/l
Helicoverpa assulta [27] = assay: Resistance factor, ratio of LD50 for sixth-instar larvae of Helicoverpa assulta AH1 to LD50 for sixth-instar larvae of Helicoverpa assulta at 39 to 12630 mg/l
Helicoverpa assulta [28] = assay: Insecticidal activity against sixth-instar larvae of Helicoverpa assulta HB1 at 39 to 12630 mg/l after 48 hr by chi-squared analysis
Helicoverpa assulta [29] = assay: Insecticidal activity against sixth-instar larvae of Helicoverpa assulta YN5 at 39 to 12630 mg/l after 48 hr by chi-squared analysis
Helicoverpa assulta [30] = assay: Insecticidal activity against sixth-instar larvae of Helicoverpa assulta YN2 at 39 to 12630 mg/l after 48 hr by chi-squared analysis
Helicoverpa assulta [31] = assay: Insecticidal activity against sixth-instar larvae of Helicoverpa assulta AH2 at 39 to 12630 mg/l after 48 hr by chi-squared analysis
Helicoverpa assulta [32] = assay: Resistance factor, ratio of LD50 for sixth-instar larvae of Helicoverpa assulta HN2 to LD50 for sixth-instar larvae of Helicoverpa assulta at 39 to 12630 mg/l
Helicoverpa assulta [33] = assay: Resistance factor, ratio of LD50 for sixth-instar larvae of Helicoverpa assulta YN3 to LD50 for sixth-instar larvae of Helicoverpa assulta at 39 to 12630 mg/l
Helicoverpa assulta [34] = assay: Insecticidal activity against sixth-instar larvae of Helicoverpa assulta YN1 at 39 to 12630 mg/l after 48 hr by chi-squared analysis
Helicoverpa assulta [35] = assay: Resistance factor, ratio of LD50 for sixth-instar larvae of Helicoverpa assulta YN4 to LD50 for sixth-instar larvae of Helicoverpa assulta at 39 to 12630 mg/l

## CC(C)C(C(=O)OC(C#N)c1cccc(Oc2ccccc2)c1)c1ccc(Cl)cc1 (configuration not stated) [FENVALERATE]
Helicoverpa assulta [1]
  LD90: 4.91 µg/g
Helicoverpa assulta [1]; Helicoverpa assulta, FJ2, 48 h
  LD50: 2.08 mg/kg
Helicoverpa assulta [2]
  Ratio: 2054
Helicoverpa assulta [3]
  LD90: 3.39 µg/g
Helicoverpa assulta [3]; Helicoverpa assulta, FJ3, 48 h
  LD50: 1.47 mg/kg
Helicoverpa assulta [4]
  LD90: 27.2 µg/g
Helicoverpa assulta [4]; Helicoverpa assulta, SD2, 48 h
  LD50: 1.94 mg/kg
Helicoverpa assulta [5]
  Ratio: 1546
Helicoverpa assulta [6]
  LD90: 7.34 µg/g
Helicoverpa assulta [6]; Helicoverpa assulta, HB1, 48 h
  LD50: 0.944 mg/kg
Helicoverpa assulta [7]
  Ratio: 415
Helicoverpa assulta [8]
  LD90: 5.67 µg/g
Helicoverpa assulta [8]; Helicoverpa assulta, FJ1, 48 h
  LD50: 1.46 mg/kg
Helicoverpa assulta [9]
  LD90: 833 µg/g
Helicoverpa assulta [9]; Helicoverpa assulta, AH1, 48 h
  LD50: 333 mg/kg
Helicoverpa assulta [10]
  LD90: 388 µg/g
Helicoverpa assulta [10]; Helicoverpa assulta, YN3, 48 h
  LD50: 227 mg/kg
Helicoverpa assulta [11]
  Ratio: 1537

## CNC(=O)ON=C(C)SC [METHOMYL]
Helicoverpa assulta [12]
  Ratio: 13.7
Helicoverpa assulta [13]
  LD90: 108 µg/g
Helicoverpa assulta [13]; Helicoverpa assulta, HB2, 48 h
  LD50: 15.8 mg/kg
Helicoverpa assulta [14]
  Ratio: 12.7
Helicoverpa assulta [15]
  Ratio: 10.9
Helicoverpa assulta [16]
  LD90: 55.5 µg/g
Helicoverpa assulta [16]; Helicoverpa assulta, GZ4, 48 h
  LD50: 16.7 mg/kg
Helicoverpa assulta [17]
  LD90: 24.2 µg/g
Helicoverpa assulta [17]; Helicoverpa assulta, HN2, 48 h
  LD50: 4.24 mg/kg
Helicoverpa assulta [18]
  Ratio: 3.93
Helicoverpa assulta [19]
  Ratio: 27
Helicoverpa assulta [20]
  Ratio: 14.5
Helicoverpa assulta [21]
  Ratio: 13.9
Helicoverpa assulta [22]
  Ratio: 14.4
Helicoverpa assulta [23]
  LD90: 168 µg/g
Helicoverpa assulta [23]; Helicoverpa assulta, AH1, 48 h
  LD50: 53.6 mg/kg
Helicoverpa assulta [24]
  Ratio: 4.48
Helicoverpa assulta [25]
  LD90: 137 µg/g
Helicoverpa assulta [25]; Helicoverpa assulta, FJ3, 48 h
  LD50: 23.6 mg/kg

## CCOP(=S)(OCC)O/N=C(\C#N)c1ccccc1 [PHOXIM]
Helicoverpa assulta [26]
  Ratio: 14.3
Helicoverpa assulta [27]
  Ratio: 50.8
Helicoverpa assulta [28]
  LD90: 18.8 µg/g
Helicoverpa assulta [28]; Helicoverpa assulta, HB1, 48 h
  LD50: 8.16 mg/kg
Helicoverpa assulta [29]
  LD90: 83.8 µg/g
Helicoverpa assulta [29]; Helicoverpa assulta, YN5, 48 h
  LD50: 25.7 mg/kg
Helicoverpa assulta [30]
  LD90: 107 µg/g
Helicoverpa assulta [30]; Helicoverpa assulta, YN2, 48 h
  LD50: 34.8 mg/kg
Helicoverpa assulta [31]
  LD90: 33.5 µg/g
Helicoverpa assulta [31]; Helicoverpa assulta, AH2, 48 h
  LD50: 16.7 mg/kg
Helicoverpa assulta [32]
  Ratio: 3.51
Helicoverpa assulta [33]
  Ratio: 12.5
Helicoverpa assulta [34]
  LD90: 57.3 µg/g
Helicoverpa assulta [34]; Helicoverpa assulta, YN1, 48 h
  LD50: 20.4 mg/kg
Helicoverpa assulta [35]
  Ratio: 16.9
